The values that follow come from patent US6828350B1, “Modulators of cysteine protease” (Exegenics Inc., priority 1997, dated 2004).

The test system of data set [1] is HRV 14. In words: Antiviral assay, XTT method, HRV 14. Format: cell-based.
For data set [2], the system named is HRV 16. In words: Antiviral assay, XTT method, HRV 16. Type of data set: cell-based.
The target in data set [3] is T1, Apopain (caspase-3) (Homo sapiens, UniProt P42574).
T1 construct: purchased Bio-rad FluorAce Apopain Assay Kit (booklet 4100119)
T1 sequence (P42574 29-175 limits assumed): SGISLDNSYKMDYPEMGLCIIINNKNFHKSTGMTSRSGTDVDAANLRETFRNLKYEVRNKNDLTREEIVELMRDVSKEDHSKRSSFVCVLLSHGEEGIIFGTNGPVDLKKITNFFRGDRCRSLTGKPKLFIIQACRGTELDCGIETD
T1 sequence (P42574 176-277 limits assumed): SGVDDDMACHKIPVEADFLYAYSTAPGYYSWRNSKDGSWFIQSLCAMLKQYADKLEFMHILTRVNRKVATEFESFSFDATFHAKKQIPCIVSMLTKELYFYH
In words: Apopain (Caspase-3) Regulation Assay (FluorAce Apopain Assay Kit). Type of data set: biochemical. The conditions noted are these: Apopain modulation: Inhibitor or Activator. The procedure: VI: Apopain (Caspase-3) Regulation Assay
The FluorAce™ Apopain Assay Kit (Bio-rad) was employed in multiwell format. Compounds assayed were diluted 5-fold in distilled water (from stock solutions in ethanol or DMSO) and centrifuged (5′, 14K rpm). 10 μL of the supernatant was further diluted in wells containing 100 μL distilled water and 40 μL 6×Buffer (41.7 mM PIPES, pH 7.4, 8.3 mM EDTA, 0.42% CHAPS, 20.8 mM DTT). This process was carried out twice to yield duplicate wells for each compound. Control wells were prepared by addition of EtOH and DMSO (5-fold diluted in distilled water) into wells containing 6×Buffer and distilled water (40 μL and 100 μL, respectively), to form 8 wells with each solvent. Enzyme (stock solution 10-fold diluted in distilled water, see Bio-rad booklet 4100119) was added to one set of compound-containing cells and to 8 control wells (4 with ethanol and 4 with DMSO). The plate was preincubated for ˜80′ at 27°-28° C. Substrate (Z-DEVD-AFC, 490 μM, 40 μL) was then added to all wells. The plate was left at room temperature and fluorescence (360/40↑530/20↓) was measured at several time points (FL500 fluorimetric reader, Bio-tek instruments). Fluorescence at enzyme-containing wells was background-subtracted at each time point and initial rates were determined by linear regression (typically R^2>0.97). Percentage inhibition and activation was determined by relating the slope with compound to the control slope (with appropriate solvent). IC50 values are extrapolated.

Data set [4] concerns HRV 1B. In words: Antiviral assay, XTT method, HRV 1B. Type of data set: cell-based. For orientation: Tetrazolium dyes change colour on reduction, which living cells bring about.
Data set [5] in a line: Cytotoxicity by XTT assay (treated, mock-infected cells). The conditions noted are these: human, H1-HeLa cells (ATCC), mock-infected.
The test system of data set [6] is Hl-Hela cells.
In data set [7] the test system is HRV 1A. The data set is described as follows: Antiviral assay, XTT method, HRV 1A. Type of data set: cell-based.
In data set [8] the test system is Hl-Hela cells. The data set is described as follows: Cytotoxicity by XTT assay (treated, mock-infected cells). The settings on record: read-out: TC50; Format 1; concentration that retards cell growth by 50%, mock-infected Hl-Hela cells.
In data set [9] the test system is 3C protease. The settings on record: background, in words; cited from earlier work.
Data set [10] deals with elastase present in erythrocytes. The settings on record: background, in words; cited from earlier work.
Setting [11] is: HRV 14, Format 1, restores 50% of viral-caused decrease in cell viability.

SMILES strings stand for the structures. Values joined by “and” are separate entries in the source; they are usually repeats but may differ in a detail not shown here. Identical values can stand only once. Like-named read-outs stand apart in the source and are kept apart here. Some results are limits rather than exact numbers.

For the molecule `CC(=O)c1c(O)cccc1OCC(N)=O` (hydrate or solvate) [SA#121, 2-(2-acetyl-3-hydroxyphenoxy)-acetamide], the melting point – broadly, the temperature of the solid-liquid transition – fell in the range of 151 to 152 °C.
As for `CCCCCC(=O)c1c(O)c(Cl)c(OC)c(Cl)c1O` [SA#15], the IC50 – broadly, the concentration that inhibits the measured activity by half – in data set [1] (HRV 14, Format 2) stood at 5 ± 1 µM; in data set [2] (HRV 16, Format 2), 1.4 ± 0.8 µM. Moreover, the Activity entry in data set [3] is given as “Activator”.
Turning to `O=C(CCc1ccccc1)c1cc(Cl)ccc1O` [SA#43], the IC50 in [1] stood at 30 ± 20 µM; in data set [2], 340 ± 70 µM; in data set [4], 40 ± 10 µM.
For `CC(=O)c1cccc(C#N)c1O` [SA#51], the Activity entry in data set [3] was “Inhibitor”.
For the molecule `CC(=O)c1c(O)c(Cl)cc(Cl)c1O` [SA#109], in [1] (HRV 14, Format 2), half-maximal inhibition (IC50) was put at 590 ± 320 µM. Moreover, the Activity entry in [3] was “Inhibitor”.
Take `CC(=O)c1c(O)cc(O)cc1O` [SA#110]: the IC50 worked out at 192 µM in data set [1] (setting [11]) and 425 µM in data set [2] (HRV 16, Format 1). The same molecule came in with a CC50 in data set [5] of 548 ± 27 µM. In addition, the Activity result in [3] is listed as “Inhibitor”.
`O=C(NCc1ccccc1)c1cc([N+](=O)[O-])cc([N+](=O)[O-])c1O` [SA#120]: the IC50 in data set [1] (setting [11]) came to 30 µM; in [1] (HRV 14, Format 2), 40 ± 33 µM; in data set [2] (HRV 16, Format 2), 30 ± 8 µM. Moreover, the CC50 in data set [6] is 271 ± 22 µM.
On to `CC(=O)c1c(O)cccc1OCC(N)=O` [SA#121, 2-(2-acetyl-3-hydroxyphenoxy)-acetamide], for which the IC50 in data set [1] (setting [11]) turned out to be 189 µM; in data set [1] (HRV 14, Format 2) it was 120 ± 50 µM; in data set [2] (HRV 16, Format 2), 420 ± 140 µM; in data set [7] (Format 1), 198 µM. In addition, in data set [5], the CC50 worked out at 425 ± 8 µM.
As to `O=C(NCCc1ccccc1)c1cc([N+](=O)[O-])cc([N+](=O)[O-])c1O` [SA#127], the IC50 in [1] (setting [11]) was 23 µM; in data set [1] (HRV 14, Format 2), 16 ± 4 µM; in data set [2] (HRV 16, Format 2) it was 15 ± 4 µM; in [4] (HRV 1B, Format 2), 11 ± 1 µM; in data set [7] (Format 2) it was 13 ± 3 µM. The same molecule came in with a CC50 in [6] of 187 ± 18 µM.
On to `CCCCCCCCNC(=O)c1cc([N+](=O)[O-])cc([N+](=O)[O-])c1O` [SA#128], for which the IC50 in [1] (setting [11]) came out at 152 µM; in data set [1] (HRV 14, Format 2), 31 ± 6 µM; in data set [2] (HRV 16, Format 2), 4 ± 3 µM. The molecule also showed a CC50 in data set [6] of 429 ± 42 µM.
In the case of `CCOC(=O)c1c(O)cc(O)c(C(C)=O)c1O` [SA#132], the IC50 in data set [1] (setting [11]) turned out to be 17 µM; in data set [4] (HRV 1B, Format 1) it was 24 µM; in data set [7] (Format 1) it was 13 µM. Besides, the CC50 in data set [8] was 29 ± 5 µM.
Take `C[C@H]1CC2=C(C(=O)c3c(O)cc(O)cc3C2=O)[C@H](O)O1` [Thysanone]: the “inhibition of the 3C protease” value in data set [9] is listed as “inhibitor of the 3C protease”. In addition, in data set [10], the inhibition of elastase entry is recorded as “efficient inhibitor”.
As to `CC(=O)c1cc(O)ccc1O` [compound 8], the IC50 came out at 230 ± 170 µM in data set [1] (HRV 14, Format 2); 35 ± 7 µM in data set [2] (HRV 16, Format 2); 33 ± 3 µM in data set [4] (HRV 1B, Format 2); 141 ± 25 µM in data set [7] (Format 2). Also, the Activity result in data set [3] is recorded as “Inhibitor”.
Consider `CC(=O)c1c(O)cccc1O` [compound 9], for which the IC50 in data set [1] (HRV 14, Format 2) stood at 110 ± 14 µM; in data set [2] (HRV 16, Format 2), 200 ± 110 µM. Also, the Activity entry in data set [3] is “Activator”.
For `CC(=O)c1cc(Cl)ccc1O` [compound 12], the IC50 is 150 µM and 290 µM in data set [1] (HRV 14, Format 2); 137 µM in data set [2] (HRV 16, Format 1); 590 ± 300 µM in [2] (HRV 16, Format 2); 305 ± 55 µM in data set [4] (HRV 1B, Format 2). The CC50 in data set [8] is > 2500 µM.
`CC(=O)c1cc(F)ccc1O` [compound 27]: the IC50 in data set [1] (setting [11]) amounted to 444 µM; in data set [2] (HRV 16, Format 2), 47 ± 8 µM. The CC50 in data set [5] was > 1250 µM. In data set [3], the Activity entry was “Inhibitor”.
For `CC(=O)c1cc(Cl)cc(Cl)c1O` [compound 29], the IC50 turned out to be 4.8 µM in [1] (setting [11]); 6 ± 2 µM in data set [1] (HRV 14, Format 2); 6 ± 2 µM in [2] (HRV 16, Format 2); 8 ± 5 µM in data set [4] (HRV 1B, Format 2); 19 ± 8 µM in data set [7] (Format 2). Further, in [8], the CC50 is 29 ± 8 µM.
On to `CC(=O)c1cc(C)cc([N+](=O)[O-])c1O` [compound 30], for which the IC50 in data set [1] (setting [11]) came to 55 µM; in data set [1] (HRV 14, Format 2), 31 ± 12 µM; in data set [2] (HRV 16, Format 2) it was 29 ± 24 µM. In addition, in data set [5], the CC50 was 67 ± 8 µM. In addition, the Activity entry in data set [3] is given as “Inhibitor”.
`O=Cc1cc(Cl)cc(Cl)c1O` [compound 33]: the IC50 in data set [1] (HRV 14, Format 2) is 14 ± 3 µM; in data set [2] (HRV 16, Format 2), 6 ± 1 µM; in [4] (HRV 1B, Format 2), 4 ± 1 µM; in [7] (Format 2) it was 9 ± 1 µM. Moreover, the Activity entry in [3] is reported as “Inhibitor”.
As for `CC(=O)c1c(O)ccc2ccccc12` [compound 35], the IC50 in data set [1] (setting [11]) was determined as 62 µM; in data set [1] (HRV 14, Format 2), 42 ± 20 µM; in data set [2] (HRV 16, Format 2), 38 ± 14 µM; in data set [4] (HRV 1B, Format 2) it was 240 ± 140 µM; in [7] (Format 2), 630 ± 470 µM. Further, in [8], the CC50 came to 180 ± 10 µM.
In the case of `COc1ccc(O)c(C(C)=O)c1` [compound 37], the IC50 came to 146 µM in [1] (setting [11]); 220 ± 23 µM in data set [1] (HRV 14, Format 2); 149 ± 148 µM in [2] (HRV 16, Format 2); 610 ± 160 µM in data set [4] (HRV 1B, Format 2); 830 ± 330 µM in data set [7] (Format 2). The CC50 in data set [5] is > 1250 µM. Moreover, the Activity result in data set [3] was “Inhibitor”.
Turning to `O=C(CCc1ccccc1)c1ccccc1O` [compound 42], the IC50 in [1] (HRV 14, Format 2) turned out to be 120 ± 40 µM; in data set [4] (HRV 1B, Format 2) it was 29 ± 1 µM; in [7] (Format 2) it was 210 ± 70 µM.
`O=Cc1cc([N+](=O)[O-])ccc1O` [compound 46] registered an IC50 in data set [1] (HRV 14, Format 2) of 170 ± 100 µM. In addition, the Activity result in data set [3] is “Inhibitor”.
`O=Cc1cc(I)cc(I)c1O` [compound 47] yielded an IC50 in data set [1] (HRV 14, Format 2) of 12 ± 2 µM. Moreover, in data set [3], the Activity entry is “Activator”.
Consider `O=c1c(O)c(-c2ccc(O)cc2)oc2cc(O)cc(O)c12` [compound 90], for which the IC50 amounted to 1.2 ± 0.5 µM in data set [1] (HRV 14, Format 2); 7 ± 4 µM in data set [2] (HRV 16, Format 2); 7 ± 4 µM in data set [4] (HRV 1B, Format 2); 5 ± 1 µM in [7] (Format 2).
As for `O=C(CCc1ccc(O)cc1)c1c(O)cc(O)cc1O` [compound 91], the half-inhibitory concentration (IC50) in [1] (HRV 14, Format 2) is 9 ± 4 µM; in [2] (HRV 16, Format 2), 50 ± 10 µM; in [4] (HRV 1B, Format 2) it was 26 ± 15 µM; in [7] (Format 2) it was 130 ± 14 µM. In addition, the Activity result in [3] was “Inhibitor”.
In the case of `C/C=C/c1cc2c(c(=O)o1)C(=O)[C@@H](O)[C@H](C)O2` [radicinin], the “inhibition of the 3C protease” value in [9] is recorded as “lower level of inhibition than thysanone”.
